Test results published in article PMC6110922, “Inhibition of Chloride Intracellular Channel 1 (CLIC1) as Biguanide Class-Effect to Impair Human Glioblastoma Stem Cell Viability” (Frontiers in Pharmacology, 2018).
Where a name gives a salt, the structure may show the parent alone.

Molecular target: T1, chloride intracellular channel 1 (CLIC1) (Homo sapiens, UniProt O00299)
T1 construct: endogenous channel in GBM2 and GBM4 glioblastoma stem cells
Assay: perforated-patch whole-cell patch clamp, CLIC1 (IAA94-sensitive) current
Assay type: cell-based

SMILES | perforated-patch whole-cell patch clamp, CLIC1 (IAA94-sensitive) current [mM]
CC1(C)N=C(N)N=C(N)N1c1ccc(Cl)cc1 [cycloguanil] | 0.5
CN(C)C(=N)NC(=N)N [metformin, 1,1-dimethylbiguanide hydrochloride] | 10
